Reference: patent US7425418B2, “Compounds that modulate processes associated with IgE production” (Rigel Pharmaceuticals, Inc., priority 2002, dated 2008)

Tests used:
[1] = system: ST486 endogenous α promoter; assay: TAQMAN assay of endogenous germline α promoter transcription in TGF-β stimulated ST486 cells; assay type: cell-based; settings: TGF-β 40 ng/ml, average of 3 values, p=0.6867
Experimental: The ability of peptide CL06wt to inhibit transcription of an endogenous germline ε promoter was confirmed using a TAQMAN® assay (Roche Molecular, Alameda, Calif.). Briefly, A5T4 cells were infected with retrovirus capable of expressing peptide CL06wt (prepared as described above). The cells were sorted for BFP^+ to select for infected cells. Infected cells were divided into two populations. One population was exposed to Dox (10 ng/ml). Both populations were stimulated with IL-4 (60 U/ml). After 3 days, the cells were pelleted and the pellets assayed for ε promoter transcription using a TAQMAN assay performed as described in Applied Biosystems Protocol 4310299 (available at http:www.appliedbiosystems.com). The primers and probe, which are specific for the transcription product driven by the A5T4 endogenous ε promoter, were as follows (the probe was labeled at the 5′-end with Fam and at the 3′-end with Tamra):
The assay was similar to that described in the immediately preceding section, except that ST486 cells (ATCC # CRL-1647) engineered to express the tetracycline-regulated transactivator were infected and the infected cells were stimulated with TGF-β (40 ng/ml; Peprotech). The primers and probe, which are specific for the transcription product driven by the ST486 endogenous α promoter, were as follows (the probe was labeled at the 5′-end with Fam and at the 3′-end with Tamra): […]

human RXR-β (hRXR-β) = target: T1, human RXR-β (hRXR-β) (Homo sapiens, UniProt P28702); assay: β-galactosidase yeast two-hybrid (YTH) interaction assay; assay type: binding
T1 construct: expressed in transfected cells; prey cDNA from a library of the A5T4 reporter cell line (BJAB B-cells)
T1 sequence (P28702 1-533): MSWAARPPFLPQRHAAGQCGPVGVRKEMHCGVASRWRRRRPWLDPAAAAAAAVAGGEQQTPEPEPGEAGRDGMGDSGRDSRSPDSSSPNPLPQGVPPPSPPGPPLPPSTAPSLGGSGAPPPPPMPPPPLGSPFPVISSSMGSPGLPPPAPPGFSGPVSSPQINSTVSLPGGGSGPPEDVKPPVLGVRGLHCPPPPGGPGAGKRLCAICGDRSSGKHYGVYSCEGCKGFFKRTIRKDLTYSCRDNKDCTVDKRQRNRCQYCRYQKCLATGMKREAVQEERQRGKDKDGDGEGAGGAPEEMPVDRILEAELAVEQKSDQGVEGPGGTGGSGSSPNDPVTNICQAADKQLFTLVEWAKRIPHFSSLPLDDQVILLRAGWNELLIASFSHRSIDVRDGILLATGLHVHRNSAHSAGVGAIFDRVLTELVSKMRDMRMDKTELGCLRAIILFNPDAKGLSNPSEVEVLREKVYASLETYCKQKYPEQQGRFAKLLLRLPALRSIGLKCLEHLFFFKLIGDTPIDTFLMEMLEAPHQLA
Experimental: Potential binding partners for peptide CL06wt were identified in a β-galactosidase yeast two-hybrid (YTH) assay using peptide CL06wt as bait and a cDNA library constructed from the A5T4 reporter cell line as prey. Binding was assessed by β-galactosidase quantification using BetaFluor (Novagen) as a substrate. A negative interaction control (no cDNA fused downstream of the GAL4 activation domain sequence) was also run. A general outline of the YTH assay is illustrated in FIG. 5A. Following clustering, filtering to remove non-specific bait hits (e.g., GFP and BFP), singletons and clusters recognized by 10 or more cDNA baits (based upon historical YTH assays), and prioritization, four prey clones were identified as hits, designated CL06-nonstim-7, CL06-stim-14, CL06-stim-15 and CL06-stim-2.
The interaction of CL06wt peptide and its mutants with the clones identified as potential targets for the peptide CL06wt was then quantified in a β-galactosidase YTH assay. The YTH assay was performed in the manner described above. A general outline of this YTH assay is illustrated in FIG. 5B. […]
The interaction of these IOF and LOF mutants with different polypeptides encoded by the clones CL06-nonstim-7, CL06-stim-14, CL06-stim-15 and CL06-stim-2 were quantified using the YTH assay described above. […]

germline ε transcription = settings: in vitro assays, literature; cited from earlier work
IgE production = settings: in vitro assays, literature; cited from earlier work
[2] = system: germline ε promoter (A5T4 reporter line); assay: Retinoids contacted with IL-4 stimulated A5T4 reporter cells, inhibition of germline ε transcription; assay type: cell-based, human; settings: 0.03 μM, 0.3 μM, 3 μM and 30 μM, FIG. 12
Experimental: IL-4 stimulated A5T4 reporter cells were contacted with varying concentrations of retinoids a-tRA, 13-cRA and 9-cRA (0.03 μM, 0.3 μM, 3 μM and 30 μM) as assessed for inhibition of germline ε transcription. DMSO and a compound known to inhibit germline ε transcription were tested as controls.

[3] = system: IL-4 inducible germline ε promoter (A5T4 reporter cell line); assay: A5T4 reporter line screening assay: IL-4 induced germline ε promoter driving HBEGF2a/GFP reporter, peptide expressed retrovirally as BFP fusion, FACS; assay type: cell-based, human; settings: mutants categorised relative to CL06wt
Source text: Peptide CL06wt was identified by screening a retroviral library of random peptide 20-mers for the ability to inhibit IL-4 induced germline ε transcription using the HBEGF2a/diphtheria dual reporter phenotypic screening system described in WO 01/31232. To construct the random library, A5T4 reporter cells (described in more detail below) were infected with an infectious retroviral library of random peptide 20-mers (prepared as described in WO 97/27213; see also WO 01/34806 at page 39, line 36 through page 40, line 19). The retroviral vector used includes a gene encoding blue fluorescent protein (BFP) fused upstream of the region encoding the random peptide via a linker region encoding an α-helical peptide linker (expression fusion product is referred to as “BFP-peptide”). Expression of the BFP-peptide product is controlled by a promoter sensitive to the tetracyline-regulated transactivator such that expression of the BFP-peptide regulated by tetracycline (Tet) or doxycycline (Dox). […]
Following infection, the library was enriched for cells expressing peptides that inhibit IL-4 induced ε transcription as generally outlined in the top half of FIG. 3 and sorted by FACS into single cell clones. […] After 5 days, both populations were stimulated with IL-4 (final conc. 60 U/mL; PeptroTech, Inc.) and, after 3 more days, both populations were analyzed by FACS to measure BFP and GFP fluorescence. […]

[4] = target: T2, human retinoid X receptor beta (polypeptide encoded by prey clone CL06-stim-2) (human, UniProt P28702 1-533, limits assumed); assay: cell-based or functional assay
T2 sequence (looked up): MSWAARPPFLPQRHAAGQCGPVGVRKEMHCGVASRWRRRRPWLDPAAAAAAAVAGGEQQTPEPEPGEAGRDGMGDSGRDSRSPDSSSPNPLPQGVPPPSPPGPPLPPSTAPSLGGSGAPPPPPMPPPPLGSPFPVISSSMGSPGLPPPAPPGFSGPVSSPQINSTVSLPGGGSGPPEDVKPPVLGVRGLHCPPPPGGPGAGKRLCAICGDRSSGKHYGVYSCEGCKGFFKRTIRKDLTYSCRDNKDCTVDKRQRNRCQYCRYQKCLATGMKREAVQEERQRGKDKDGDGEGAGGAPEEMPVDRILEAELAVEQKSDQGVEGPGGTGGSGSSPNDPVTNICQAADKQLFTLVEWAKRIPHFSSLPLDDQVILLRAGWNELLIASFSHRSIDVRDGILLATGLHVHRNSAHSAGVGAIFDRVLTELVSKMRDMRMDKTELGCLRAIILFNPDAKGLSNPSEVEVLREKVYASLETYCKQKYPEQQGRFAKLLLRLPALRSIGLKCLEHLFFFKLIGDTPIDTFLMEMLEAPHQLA

[5] = target: T2, human retinoid X receptor beta …; assay: cell-based or functional assay; remark: listed apart in the source
[6] = target: T2, human retinoid X receptor beta …; assay: beta-galactosidase yeast two-hybrid; CL06LC is a loss of function (L) mutant, hence category L (loss of interaction) with CL06-stim-2
[7] = target: T2, human retinoid X receptor beta …; assay: beta-galactosidase yeast two-hybrid; CL06SY1 is a loss of function (L) mutant, hence category L (loss of interaction) with CL06-stim-2

Molecule: MSLCSYAHSYAA [CL06wt, 12-residue peptide identified from a retroviral random peptide library, expressed as BFP-peptide fusion]
- endogenous a inhibition ratio [1]: 0.93
- binding to hRXR-β in yeast two hybrid interaction assay (human RXR-β (hRXR-β)): found to bind

Molecule: CC1=C(/C=C/C(C)=C/C=C/C(C)=C\C(=O)O)C(C)(C)CCC1 [Peptide 13-cRA, 13-cis-RA]
- inhibition of germline ε transcription (germline ε transcription): inhibit both IgE production and germline ε transcription in a dose-dependent manner
- inhibition of IgE production (IgE production): inhibit both IgE production and germline ε transcription in a dose-dependent manner
- inhibition of germline ε transcription [2]: inhibited germline ε transcription in a dose-dependent manner

Molecule: CC1=C(/C=C/C(C)=C\C=C\C(C)=C\C(=O)O)C(C)(C)CCC1 [Peptide 9-cRA, 9-cis RA]
- inhibition of germline ε transcription [2]: inhibited germline ε transcription in a dose-dependent manner

Molecule: AALCSYAHSYAA [CL06MS, dual alanine mutant of CL06wt]
- functional category based on reporter ratio [3]: IOF (An increase of function mutant (IOF) shows a >50% increase in reporter function)
- binding to hRXR-β in yeast two hybrid interaction assay (human RXR-β (hRXR-β)): found to bind

Molecule: CC1=C(/C=C/C(C)=C/C=C/C(C)=C/C(=O)O)C(C)(C)CCC1 [a-tRA, all-trans RA]
- inhibition of germline ε transcription (germline ε transcription): inhibit both IgE production and germline ε transcription in a dose-dependent manner
- inhibition of IgE production (IgE production): inhibit both IgE production and germline ε transcription in a dose-dependent manner
- inhibition of germline ε transcription [2]: inhibited germline ε transcription in a dose-dependent manner

Molecule: MSLCSYAHSYAA [peptide CL06wt (MSLCSYAHSYAA)]
- endogenous ε inhibition ratio (TAQMAN assay, +IL-4/-Dox to +IL-4/+Dox) [4]: 1.37
- Reporter Ratio (A5T4 reporter line, IL-4 induced germline ε transcription) [5]: 1.3

Molecule: AALCSYAHSYAA [peptide CL06MS (AALCSYAHSYAA)]
- Reporter Ratio (A5T4 reporter line, IL-4 induced germline ε transcription) [5]: 1.56

B1: peptide CL06LC (MSAASYAHSYAA) (peptide)
peptide: MSAASYAHSYAA
notes: Dual alanine mutant of CL06wt (L, C to A, A); Yeast two-hybrid bait fusion and BFP fusion as for CL06wt
- Reporter Ratio (A5T4 reporter line, IL-4 induced germline ε transcription) [5]: 1.06
- binding result [6]: no binding

B2: peptide CL06SY1 (MSLCAAAHSYAA) (peptide)
peptide: MSLCAAAHSYAA
notes: Dual alanine mutant of CL06wt (first S, Y to A, A); Yeast two-hybrid bait fusion and BFP fusion as for CL06wt
- Reporter Ratio (A5T4 reporter line, IL-4 induced germline ε transcription) [5]: 1.09
- binding result [7]: no binding
